Data from patent US8956677B2, “High-potency sweetener composition with glucosamine and compositions sweetened therewith” (The Coca-Cola Company, priority 2005, dated 2015).

Assay: Sensory evaluation of sweetness linger and sugar-like taste by a panel of experts
Type: in vivo
Design: key: 0=no sweetness linger; 1=very slight sweetness linger; 2=slight sweetness linger; 3=moderate sweetness linger; 4=moderately high sweetness linger; 5=high sweetness linger
Protocol: As used herein, the phrases “sugar-like characteristic,” “sugar-like taste,” “sugar-like sweet,” “sugary,” and “sugar-like” are synonymous. […] These characteristics are dimensions in which the taste of sucrose is different from the tastes of natural and synthetic high-potency sweeteners. Whether or not a characteristic is more sugar-like is determined by expert sensory panel assessments of sugar and compositions comprising at least one natural and/or synthetic high-potency sweetener, both with and without a sweet taste improving composition. Such assessments quantify similarities of the characteristics of compositions comprising at least one natural and/or synthetic high-potency sweetener, both with and without a sweet taste improving composition, with those comprising sugar. Suitable procedures for determining whether a composition has a more sugar-like taste are well known in the art.
In a particular embodiment, a panel of assessors is used to measure the reduction of sweetness linger. Briefly described, a panel of assessors (generally 8 to 12 individuals) is trained to evaluate sweetness perception and measure sweetness at several time points from when the sample is initially taken into the mouth until 3 minutes after it has been expectorated. […] A decrease in score for a time point measured after the sample has cleared the mouth indicates there has been a reduction in sweetness perception.
The panel of assessors may be trained using procedures well known to those of ordinary skill in the art. In a particular embodiment, the panel of assessors may be trained using the Spectrum™ Descriptive Analysis Method (Meilgaard et al, Sensory Evaluation Techniques 3rd edition, Chapter 11). […]
Sensory evaluation of the samples prepared in Example Set G was carried out under the following protocol, similar to that described hereinabove. […] Immediately upon sensing maximal sweetness, the sample was expectorated, the mouth was rinsed with water and the rate of sweetness decay (“Sweetness Linger”) was measured, where attention was focused on the sweetness 3-4 min after the water rinse. […]

rebaudioside A
5: sweetness linger (400 ppm REBA in citric acid/potassium citrate composition equivalent to that in a diet lemon-lime beverage, with or without additive, scale 0-5, sweetness 3-4 min after water rinse) | sweetness linger (500 ppm REBA in carbon-treated water, phosphoric acid (75%) to pH 2.4-2.5, with or without additive, scale 0-5) | Sweetness Linger rating defined for controls (scale anchors defined by the protocol, REBA control sample at 500 ppm)
